Columns and labels:
Test in all cases: KinomeScan profiling
Assay type in all cases: binding
CIT = CIT (Homo sapiens, UniProt O14578); conditions: read-out: % control
Summary of the method: (§1)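 Compounds were screened at 1 μM in DMSO across a 468-kinase KinomeScan panel. Binding was expressed as % control, scaled between a positive control (0%) and DMSO (100%) using luminescence signal. A value under 35% counted as active.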

CLK1 = CLK1 (Homo sapiens, UniProt P49759); conditions: CLK1, 1 μM; read-out: % control
Summary of the method: as §1

ACVR1B = molecular target: T1, ACVR1B (Homo sapiens, UniProt P36896); conditions: read-out: % control
T1 construct: purchased KinomeScan®
T1 sequence (P36896 24-505): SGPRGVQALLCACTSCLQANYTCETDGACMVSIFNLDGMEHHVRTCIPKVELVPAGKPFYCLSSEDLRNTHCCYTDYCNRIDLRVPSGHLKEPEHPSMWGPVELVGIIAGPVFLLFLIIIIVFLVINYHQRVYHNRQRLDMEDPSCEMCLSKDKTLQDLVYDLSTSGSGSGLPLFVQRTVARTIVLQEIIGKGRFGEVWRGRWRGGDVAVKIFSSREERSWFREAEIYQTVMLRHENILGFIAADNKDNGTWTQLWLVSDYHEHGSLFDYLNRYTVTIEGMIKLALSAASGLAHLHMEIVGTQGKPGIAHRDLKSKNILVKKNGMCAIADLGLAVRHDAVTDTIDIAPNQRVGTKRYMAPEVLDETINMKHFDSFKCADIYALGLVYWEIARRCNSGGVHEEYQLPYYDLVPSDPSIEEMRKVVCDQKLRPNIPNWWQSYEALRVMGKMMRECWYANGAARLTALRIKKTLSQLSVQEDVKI
Summary of the method: as §1

PIM1 = molecular target: T2, PIM1 (Homo sapiens, UniProt P11309); conditions: PIM1, 1 μM; read-out: % control
T2 construct: purchased KinomeScan® (panel service)
Summary of the method: as §1

PIK3C2G = molecular target: T3, PIK3C2G (Homo sapiens, UniProt O75747); conditions: read-out: % control
T3 construct: purchased KinomeScan® (panel service)
T3 sequence (O75747 1-1486): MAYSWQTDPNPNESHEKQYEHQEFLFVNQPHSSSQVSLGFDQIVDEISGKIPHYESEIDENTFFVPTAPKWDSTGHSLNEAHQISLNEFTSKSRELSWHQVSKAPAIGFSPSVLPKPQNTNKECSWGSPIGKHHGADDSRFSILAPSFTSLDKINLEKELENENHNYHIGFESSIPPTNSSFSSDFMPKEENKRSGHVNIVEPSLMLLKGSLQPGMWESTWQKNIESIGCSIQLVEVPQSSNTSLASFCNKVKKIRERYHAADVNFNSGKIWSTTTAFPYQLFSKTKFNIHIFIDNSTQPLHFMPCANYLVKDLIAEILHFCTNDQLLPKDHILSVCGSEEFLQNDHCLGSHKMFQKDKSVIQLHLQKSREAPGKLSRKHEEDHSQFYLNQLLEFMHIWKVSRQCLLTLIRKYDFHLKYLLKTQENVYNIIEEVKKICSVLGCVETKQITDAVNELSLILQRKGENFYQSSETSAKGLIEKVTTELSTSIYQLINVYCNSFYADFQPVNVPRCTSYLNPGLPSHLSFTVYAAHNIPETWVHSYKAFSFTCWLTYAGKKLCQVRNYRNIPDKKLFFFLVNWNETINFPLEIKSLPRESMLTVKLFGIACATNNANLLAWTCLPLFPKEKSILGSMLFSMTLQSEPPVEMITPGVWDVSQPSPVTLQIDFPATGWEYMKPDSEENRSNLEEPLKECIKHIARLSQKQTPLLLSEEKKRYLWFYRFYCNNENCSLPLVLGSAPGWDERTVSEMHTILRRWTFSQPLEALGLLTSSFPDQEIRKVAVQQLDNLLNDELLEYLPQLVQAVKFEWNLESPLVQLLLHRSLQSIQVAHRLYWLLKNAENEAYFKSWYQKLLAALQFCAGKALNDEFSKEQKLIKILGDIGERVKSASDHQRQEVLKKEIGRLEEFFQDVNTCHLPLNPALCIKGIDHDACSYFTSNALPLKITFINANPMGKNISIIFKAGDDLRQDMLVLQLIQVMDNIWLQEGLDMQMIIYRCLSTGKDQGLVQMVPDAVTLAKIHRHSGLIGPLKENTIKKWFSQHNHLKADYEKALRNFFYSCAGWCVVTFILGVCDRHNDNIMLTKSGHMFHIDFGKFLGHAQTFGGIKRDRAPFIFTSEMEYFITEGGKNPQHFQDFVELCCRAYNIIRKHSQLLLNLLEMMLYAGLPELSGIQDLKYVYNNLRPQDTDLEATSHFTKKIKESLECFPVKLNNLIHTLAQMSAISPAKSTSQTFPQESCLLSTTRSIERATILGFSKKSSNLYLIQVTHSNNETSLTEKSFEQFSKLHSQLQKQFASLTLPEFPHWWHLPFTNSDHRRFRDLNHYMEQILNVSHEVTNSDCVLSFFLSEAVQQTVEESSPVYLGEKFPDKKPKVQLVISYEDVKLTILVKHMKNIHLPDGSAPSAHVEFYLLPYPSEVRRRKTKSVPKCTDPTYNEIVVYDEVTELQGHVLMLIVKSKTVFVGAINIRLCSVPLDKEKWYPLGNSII
Summary of the method: as §1

BRAF = molecular target: T4, BRAF (Homo sapiens, UniProt P15056); conditions: read-out: % control
T4 construct: purchased KinomeScan®
Summary of the method: as §1

FRK = FRK (Homo sapiens, UniProt P42685); conditions: read-out: % control
Summary of the method: as §1

MARK2 = MARK2 (Homo sapiens, UniProt Q7KZI7); conditions: MARK2, 1 μM; read-out: % control
Summary of the method: as §1

CSNK1G1 = CSNK1G1 (Homo sapiens, UniProt Q9HCP0); conditions: CSNK1G1, 1 μM; read-out: % control
Summary of the method: as §1

Chain of CSNK1G1 (Q9HCP0 whole entry): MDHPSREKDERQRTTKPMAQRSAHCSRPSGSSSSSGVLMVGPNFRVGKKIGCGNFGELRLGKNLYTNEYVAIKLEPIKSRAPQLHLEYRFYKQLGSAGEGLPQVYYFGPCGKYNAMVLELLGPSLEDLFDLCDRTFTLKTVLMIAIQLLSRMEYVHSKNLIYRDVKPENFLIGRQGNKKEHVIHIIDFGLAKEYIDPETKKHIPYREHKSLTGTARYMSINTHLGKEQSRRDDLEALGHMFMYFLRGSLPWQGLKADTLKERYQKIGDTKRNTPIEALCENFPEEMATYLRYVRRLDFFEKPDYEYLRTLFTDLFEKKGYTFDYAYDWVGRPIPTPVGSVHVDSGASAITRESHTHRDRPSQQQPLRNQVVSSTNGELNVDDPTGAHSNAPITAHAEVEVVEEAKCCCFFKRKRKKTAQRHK
Chain of FRK (P42685 whole entry): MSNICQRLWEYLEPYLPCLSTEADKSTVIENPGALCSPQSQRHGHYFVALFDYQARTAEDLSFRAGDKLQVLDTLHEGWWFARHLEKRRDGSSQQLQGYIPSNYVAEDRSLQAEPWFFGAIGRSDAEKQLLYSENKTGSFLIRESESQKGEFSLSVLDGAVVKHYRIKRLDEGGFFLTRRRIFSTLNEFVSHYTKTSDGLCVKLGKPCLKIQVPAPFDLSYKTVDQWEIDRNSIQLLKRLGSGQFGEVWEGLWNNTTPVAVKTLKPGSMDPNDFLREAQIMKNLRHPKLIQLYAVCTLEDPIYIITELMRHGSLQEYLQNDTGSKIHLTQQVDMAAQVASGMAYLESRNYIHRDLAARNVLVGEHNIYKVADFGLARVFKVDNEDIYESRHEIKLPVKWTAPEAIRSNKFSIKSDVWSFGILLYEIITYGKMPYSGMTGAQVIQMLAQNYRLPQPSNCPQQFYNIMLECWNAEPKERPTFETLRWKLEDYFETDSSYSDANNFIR
Chain of CLK1 (P49759 whole entry): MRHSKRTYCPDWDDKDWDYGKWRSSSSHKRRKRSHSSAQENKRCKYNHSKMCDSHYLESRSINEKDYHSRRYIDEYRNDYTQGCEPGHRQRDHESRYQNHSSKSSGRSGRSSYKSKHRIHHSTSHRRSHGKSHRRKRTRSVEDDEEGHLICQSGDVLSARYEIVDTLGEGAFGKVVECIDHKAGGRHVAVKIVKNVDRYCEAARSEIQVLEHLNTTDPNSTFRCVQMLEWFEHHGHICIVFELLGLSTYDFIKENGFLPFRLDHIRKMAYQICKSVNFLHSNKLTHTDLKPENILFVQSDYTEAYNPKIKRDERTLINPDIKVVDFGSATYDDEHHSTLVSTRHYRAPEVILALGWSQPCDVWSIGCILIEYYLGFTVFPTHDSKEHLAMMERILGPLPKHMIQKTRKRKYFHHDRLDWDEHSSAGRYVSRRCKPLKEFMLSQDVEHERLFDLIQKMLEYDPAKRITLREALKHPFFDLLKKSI
Chain of MARK2 (Q7KZI7 whole entry): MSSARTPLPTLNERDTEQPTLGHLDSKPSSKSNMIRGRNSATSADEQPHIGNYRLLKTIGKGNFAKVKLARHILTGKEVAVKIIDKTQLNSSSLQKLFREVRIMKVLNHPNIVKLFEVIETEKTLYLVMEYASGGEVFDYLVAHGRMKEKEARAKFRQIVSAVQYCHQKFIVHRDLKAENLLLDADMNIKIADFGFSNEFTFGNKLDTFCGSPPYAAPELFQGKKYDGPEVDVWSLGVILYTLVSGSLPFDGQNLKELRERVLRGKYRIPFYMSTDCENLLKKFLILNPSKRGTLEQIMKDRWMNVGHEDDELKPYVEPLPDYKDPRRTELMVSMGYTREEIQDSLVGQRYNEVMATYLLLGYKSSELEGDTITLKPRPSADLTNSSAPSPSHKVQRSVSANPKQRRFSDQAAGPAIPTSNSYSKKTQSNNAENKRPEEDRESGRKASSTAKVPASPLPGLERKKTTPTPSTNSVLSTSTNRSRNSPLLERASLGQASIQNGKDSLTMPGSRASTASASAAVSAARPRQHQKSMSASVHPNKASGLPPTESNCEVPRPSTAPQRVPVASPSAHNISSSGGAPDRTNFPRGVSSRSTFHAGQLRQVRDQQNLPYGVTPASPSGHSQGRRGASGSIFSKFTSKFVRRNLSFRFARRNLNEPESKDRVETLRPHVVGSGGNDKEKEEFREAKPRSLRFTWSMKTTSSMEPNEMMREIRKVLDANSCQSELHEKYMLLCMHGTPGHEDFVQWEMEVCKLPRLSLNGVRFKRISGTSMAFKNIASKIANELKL
Chain of CIT (O14578 whole entry): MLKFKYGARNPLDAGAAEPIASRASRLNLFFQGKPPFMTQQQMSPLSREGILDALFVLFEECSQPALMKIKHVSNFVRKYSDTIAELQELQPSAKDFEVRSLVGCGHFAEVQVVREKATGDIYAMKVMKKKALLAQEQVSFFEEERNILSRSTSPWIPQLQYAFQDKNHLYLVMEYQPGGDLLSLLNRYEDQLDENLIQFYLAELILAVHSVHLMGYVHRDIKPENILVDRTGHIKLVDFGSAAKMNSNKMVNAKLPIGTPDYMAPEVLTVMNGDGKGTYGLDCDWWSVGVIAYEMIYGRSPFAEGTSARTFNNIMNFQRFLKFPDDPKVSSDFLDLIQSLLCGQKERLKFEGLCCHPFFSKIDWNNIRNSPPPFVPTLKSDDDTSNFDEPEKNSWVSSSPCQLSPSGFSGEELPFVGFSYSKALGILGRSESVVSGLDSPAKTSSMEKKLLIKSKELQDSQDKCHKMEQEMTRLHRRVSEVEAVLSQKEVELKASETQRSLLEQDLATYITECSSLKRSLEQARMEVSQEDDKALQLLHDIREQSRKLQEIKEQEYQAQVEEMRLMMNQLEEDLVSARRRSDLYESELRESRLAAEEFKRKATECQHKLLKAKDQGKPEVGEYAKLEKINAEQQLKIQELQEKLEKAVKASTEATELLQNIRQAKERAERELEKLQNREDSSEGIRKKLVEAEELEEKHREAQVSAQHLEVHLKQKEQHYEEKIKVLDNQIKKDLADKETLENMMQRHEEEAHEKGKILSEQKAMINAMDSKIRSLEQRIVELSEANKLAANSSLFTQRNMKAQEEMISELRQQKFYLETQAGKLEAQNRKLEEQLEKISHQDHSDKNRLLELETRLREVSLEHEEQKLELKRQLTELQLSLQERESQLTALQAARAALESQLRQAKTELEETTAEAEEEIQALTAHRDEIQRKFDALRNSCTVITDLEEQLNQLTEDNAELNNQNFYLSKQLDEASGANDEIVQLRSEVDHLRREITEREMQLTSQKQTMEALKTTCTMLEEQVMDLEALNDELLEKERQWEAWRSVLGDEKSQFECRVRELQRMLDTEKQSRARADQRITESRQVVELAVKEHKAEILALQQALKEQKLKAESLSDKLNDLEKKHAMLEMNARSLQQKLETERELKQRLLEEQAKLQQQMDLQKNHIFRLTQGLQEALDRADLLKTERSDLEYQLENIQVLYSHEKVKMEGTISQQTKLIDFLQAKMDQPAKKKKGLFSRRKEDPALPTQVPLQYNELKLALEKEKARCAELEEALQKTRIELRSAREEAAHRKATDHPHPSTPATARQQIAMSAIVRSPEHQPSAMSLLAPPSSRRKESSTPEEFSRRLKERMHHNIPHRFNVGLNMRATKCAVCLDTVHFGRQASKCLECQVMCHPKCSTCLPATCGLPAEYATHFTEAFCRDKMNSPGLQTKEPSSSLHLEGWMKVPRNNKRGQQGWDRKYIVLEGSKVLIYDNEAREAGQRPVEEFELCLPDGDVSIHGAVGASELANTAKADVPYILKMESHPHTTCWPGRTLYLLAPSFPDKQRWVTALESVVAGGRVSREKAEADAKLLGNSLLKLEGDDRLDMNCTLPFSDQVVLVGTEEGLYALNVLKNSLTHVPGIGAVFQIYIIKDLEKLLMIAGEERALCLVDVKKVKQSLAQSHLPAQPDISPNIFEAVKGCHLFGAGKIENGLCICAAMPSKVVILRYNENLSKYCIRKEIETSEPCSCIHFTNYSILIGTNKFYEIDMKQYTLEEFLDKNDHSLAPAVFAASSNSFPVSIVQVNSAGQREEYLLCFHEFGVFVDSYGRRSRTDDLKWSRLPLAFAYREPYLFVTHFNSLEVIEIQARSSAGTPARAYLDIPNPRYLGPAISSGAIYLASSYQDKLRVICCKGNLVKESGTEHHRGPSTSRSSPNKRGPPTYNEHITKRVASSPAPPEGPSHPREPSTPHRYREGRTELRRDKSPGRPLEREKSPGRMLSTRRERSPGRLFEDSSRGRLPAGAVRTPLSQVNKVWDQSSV
T4 sequence (P15056 whole entry): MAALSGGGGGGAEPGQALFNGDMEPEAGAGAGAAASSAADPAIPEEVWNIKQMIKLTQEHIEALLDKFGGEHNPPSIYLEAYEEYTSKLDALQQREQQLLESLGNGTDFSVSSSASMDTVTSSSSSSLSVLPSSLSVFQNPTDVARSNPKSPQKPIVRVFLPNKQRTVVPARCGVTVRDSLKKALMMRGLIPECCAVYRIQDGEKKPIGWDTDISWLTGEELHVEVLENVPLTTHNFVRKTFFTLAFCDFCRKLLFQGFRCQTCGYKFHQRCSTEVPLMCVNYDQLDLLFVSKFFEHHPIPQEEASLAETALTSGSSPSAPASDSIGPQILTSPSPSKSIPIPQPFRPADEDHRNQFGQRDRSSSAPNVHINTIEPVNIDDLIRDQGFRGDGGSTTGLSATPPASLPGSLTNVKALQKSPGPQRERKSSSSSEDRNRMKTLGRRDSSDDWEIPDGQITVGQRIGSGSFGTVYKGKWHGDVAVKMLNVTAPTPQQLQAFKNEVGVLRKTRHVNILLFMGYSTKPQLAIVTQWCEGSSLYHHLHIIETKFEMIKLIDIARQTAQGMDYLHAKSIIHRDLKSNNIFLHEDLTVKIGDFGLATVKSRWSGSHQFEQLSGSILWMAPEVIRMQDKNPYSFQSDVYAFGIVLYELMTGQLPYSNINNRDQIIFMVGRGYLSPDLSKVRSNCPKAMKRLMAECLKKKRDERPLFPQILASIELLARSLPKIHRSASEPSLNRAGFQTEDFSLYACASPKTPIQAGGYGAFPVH

Compound | remaining binding at 1 µM (CIT) | remaining binding at 1 µM (CLK1) | remaining binding at 1 µM (ACVR1B) | remaining binding at 1 µM (PIM1) | remaining binding at 1 µM (PIK3C2G) | remaining binding at 1 µM (BRAF) | remaining binding at 1 µM (FRK) | remaining binding at 1 µM (MARK2) | remaining binding at 1 µM (CSNK1G1)
CNc1c(-c2cnn([C@H]3CCN(C(C)=O)C[C@@H]3F)c2)cnc2[nH]cc(Cl)c12 [Compound 77, 1-((3S,4S)-4-(4-(3-chloro-4-(methylamino)-1H-pyrrolo[2,3-b]pyridin-5-yl)-1H-pyrazol-1-yl)-3-fluoropiperidin-1-yl)ethan-1-one] | 6.8% | 84% | 83% | 95% | 100% | 91% | 100% | 86% | 81%
CNc1c(-c2ccc(C(=O)N3CCC(N4CCOCC4)CC3)cc2)cnc2[nH]cc(Cl)c12 [Compound 96, (4-(3-chloro-4-(methylamino)-1H-pyrrolo[2,3-b]pyridin-5-yl)phenyl)(4-morpholinopiperidin-1-yl)methanone] | 11% | 33% | 74% | 100% | 94% | 90% | 84% | 60% | 19%
O=C(c1ccc(-c2cnc3[nH]cc(Cl)c3c2NC2CCCC2)cc1)N1CCC(N2CCOCC2)CC1 [Compound 101, (4-(3-chloro-4-(cyclopentylamino)-1H-pyrrolo[2,3-b]pyridin-5-yl)phenyl)(4-morpholinopiperidin-1-yl)methanone] | 21% | 59% | 98% | 95% | 92% | 84% | 100% | 68% | 92%

From patent publication US12275731B2, “Azaindole inhibitors of wild-type and mutant forms of LRRK2” (DANA-FARBER CANCER INSTITUTE, INC., priority 2018, dated 2025)
